Assay results from patent publication US9809623B2, “α4β7 peptide monomer and dimer antagonists” (Protagonist Therapeutics, Inc., priority 2014, dated 2017).
Where two headings read alike, the source gives them in different places. Numbered stars: 1 amine (or outer) side, 2 acyl side, 3 side chain; on linkers, the order of the positions; unused ones are H or OH. Bridge positions count the residues as written; N and C are the ends. Square brackets hold non-standard residues; d marks the D form. Peptide text beside a SMILES is read from it. I, II: the chains in the order shown. Phe(4-CF3) = N[C@@H](Cc1ccc(C(F)(F)F)cc1)C(=O)O; Phe(4-tBu) = CC(C)(C)c1ccc(C[C@H](N)C(=O)O)cc1; 2Nal = N[C@@H](Cc1ccc2ccccc2c1)C(=O)O; Diglycolyl = O=C(COCC(=O)[*:2])[*:1]; NMeR = CN[C@@H](CCCNC(=N)N)C(=O)O; NMeK = CN[C@@H](CCCCN)C(=O)O; Pen = CC(C)(S)[C@H](N)C(=O)O; Dab = NCC[C@H](N)C(=O)O

Assays:
[1] = Simulated Intestinal Fluid (SIF) Stability Assay; format: in vitro ADME, porcine; settings: pig, simulated intestinal fluid (SIF) with porcine pancreatin, pH 6.5, Table 3-B
Description: Studies were carried out in simulated intestinal fluid (SIF) to evaluate intestinal stability of the peptide molecules of the instant invention. To prepare the SIF reagent, blank FASSIF was prepared by dissolving 0.348 g NaOH, 3.954 g sodium phosphate monobasic monohydrate and 6.186 g NaCl in a final volume of 1 liter water (final pH=6.5). To this solution, 24 g porcine pancreatin (Sigma catalog P7545) was added and stirred for 30 minutes (final pancreatin concentration is 2.4%). The solution was filtered through a cheese cloth and a No. 1 Whatman filter, and 10 ml aliquots were stored at −70° C. To run the reaction, a 10 ml aliquot was thawed at 37° C., and 125 ul aliquots were removed and mixed with an equal volume of blank FASSIF. The peptide stock solution (10 mM in 100% DMSO) was diluted 75-fold in blank FASSIF. A 50 μl aliquot of the diluted peptide was combined with 125 μl pancreatin (2.4%) and 125 μl blank FASSIF to yield final concentrations of 1% pancreatin and 22 μM peptide. The reactions were incubated at 37° C., and at various time points 50 μl aliquots were removed and added to 200 μl of quench solution containing 50% acetonitrile, 50% methanol, 5% formic acid, and 1 μg/ml internal standard. The quenched samples were centrifuged at 10,000 rpm for 10 minutes, and the supernatants were analyzed by LCMS/MS. The percent remaining at each time point was calculated based on the peak area response ratio of test to compound to internal standard. Half-lives were calculated by fitting to a first-order exponential decay equation using GraphPad.

α4β7 = α4β7 (Homo sapiens, UniProt P13612+P26010); experiment: α4β7-MAdCAM Cell Adhesion Assay (RPMI 8866 human cells); format: cell-based; design: host or cells: RPMI 8866 human B lymphoblastoid cells; settings: Table 3-B, Potency (α4β7); range classes; read-out: α4β7 cell (Hu) IC50
Summary of the method: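 Adhesion read-out: MTT absorbance at 570 nm minus no-cell wells, after three washes. Plates coated with rh MAdCAM-1/Fc received peptide dilutions plus 200,000 RPMI 8866 cells in Mn2+ (1 mM)-supplemented DMEM, 0.1% BSA, HEPES pH 7, incubated 30-45 min, 37 °C.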

[2] = > means experiment was stopped at that time and half life was not reached, read-out: Stabilty SIF t1/2
[3] = alone or in parentheses after >360, read-out: Stabilty SIF t1/2, in hr (converted)

Sequence of α4β7 (P13612 34-1032): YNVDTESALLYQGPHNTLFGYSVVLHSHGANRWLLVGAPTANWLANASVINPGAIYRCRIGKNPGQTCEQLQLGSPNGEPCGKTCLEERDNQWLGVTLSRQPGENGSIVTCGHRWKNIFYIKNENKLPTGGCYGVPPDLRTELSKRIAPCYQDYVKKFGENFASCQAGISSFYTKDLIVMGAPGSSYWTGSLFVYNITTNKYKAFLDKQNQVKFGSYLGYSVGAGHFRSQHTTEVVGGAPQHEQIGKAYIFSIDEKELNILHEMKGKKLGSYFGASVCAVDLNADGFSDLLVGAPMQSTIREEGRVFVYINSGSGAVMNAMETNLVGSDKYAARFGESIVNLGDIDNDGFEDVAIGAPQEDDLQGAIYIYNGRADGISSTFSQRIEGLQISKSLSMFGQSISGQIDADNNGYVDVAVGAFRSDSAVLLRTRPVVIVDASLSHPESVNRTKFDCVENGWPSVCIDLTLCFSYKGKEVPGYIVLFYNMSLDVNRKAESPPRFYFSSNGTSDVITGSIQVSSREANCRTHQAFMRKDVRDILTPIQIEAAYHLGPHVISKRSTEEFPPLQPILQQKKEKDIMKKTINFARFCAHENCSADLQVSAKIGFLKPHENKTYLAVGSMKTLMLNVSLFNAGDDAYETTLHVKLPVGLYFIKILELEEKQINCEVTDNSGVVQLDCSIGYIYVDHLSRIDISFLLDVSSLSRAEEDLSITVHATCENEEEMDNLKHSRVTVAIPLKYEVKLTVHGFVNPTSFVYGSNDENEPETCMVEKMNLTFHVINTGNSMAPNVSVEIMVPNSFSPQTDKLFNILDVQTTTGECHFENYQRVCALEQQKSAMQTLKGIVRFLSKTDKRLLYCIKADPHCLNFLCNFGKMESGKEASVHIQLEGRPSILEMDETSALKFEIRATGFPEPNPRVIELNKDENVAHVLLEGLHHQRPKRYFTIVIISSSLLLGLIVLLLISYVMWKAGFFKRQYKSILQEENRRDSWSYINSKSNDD
Sequence of α4β7 (P26010 20-798): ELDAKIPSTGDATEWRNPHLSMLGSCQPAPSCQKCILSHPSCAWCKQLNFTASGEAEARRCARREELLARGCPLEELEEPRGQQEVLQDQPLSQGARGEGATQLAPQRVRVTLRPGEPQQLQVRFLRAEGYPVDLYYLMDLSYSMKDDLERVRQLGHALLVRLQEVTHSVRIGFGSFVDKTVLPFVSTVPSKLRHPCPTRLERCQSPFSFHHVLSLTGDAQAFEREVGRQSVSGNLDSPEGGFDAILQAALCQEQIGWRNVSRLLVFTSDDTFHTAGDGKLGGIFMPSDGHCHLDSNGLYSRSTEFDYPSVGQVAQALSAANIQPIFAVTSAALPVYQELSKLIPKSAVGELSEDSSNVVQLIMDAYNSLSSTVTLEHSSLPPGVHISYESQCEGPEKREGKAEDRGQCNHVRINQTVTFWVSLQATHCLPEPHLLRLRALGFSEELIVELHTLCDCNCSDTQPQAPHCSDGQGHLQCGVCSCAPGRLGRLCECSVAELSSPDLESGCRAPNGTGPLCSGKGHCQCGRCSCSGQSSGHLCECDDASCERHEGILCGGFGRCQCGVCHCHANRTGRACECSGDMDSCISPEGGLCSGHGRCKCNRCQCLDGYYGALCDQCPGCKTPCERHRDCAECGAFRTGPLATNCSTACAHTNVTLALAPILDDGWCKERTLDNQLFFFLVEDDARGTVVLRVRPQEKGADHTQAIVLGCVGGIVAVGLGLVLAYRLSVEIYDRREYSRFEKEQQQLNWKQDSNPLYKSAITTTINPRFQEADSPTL

| SMILES | half-life at 22 μM [1, 2] [h] | other results |
| --- | --- | --- |
| CC(=O)N[C@@H]1C(=O)N(C)[C@@H](CCCNC(=N)N)C(=O)N[C@@H](CO)C(=O)N[C@@H](CC(=O)O)C(=O)N[C@@H]([C@@H](C)O)C(=O)N[C@@H](CC(C)C)C(=O)N[C@H](C(=O)N[C@@H](Cc2ccc(C(C)(C)C)cc2)C(=O)N[C@@H](CCC(=O)O)CC(=O)N[C@H](CCCCNC(=O)CN(CC(=O)NCCCC[C@@H](NC(=O)C[C@H](CCC(=O)O)NC(=O)[C@H](Cc2ccc(C(C)(C)C)cc2)NC(=O)[C@H]2NC(=O)[C@H](CC(C)C)NC(=O)[C@H]([C@@H](C)O)NC(=O)[C@H](CC(=O)O)NC(=O)[C@H](CO)NC(=O)[C@H](CCCNC(=N)N)N(C)C(=O)[C@@H](NC(C)=O)C(C)(C)SSC2(C)C)C(N)=O)C(=O)CCNC(=O)CCCCCC2(C)C(=CC=CC=CC3=[N+](CCCS(=O)(=O)[O-])c4ccc(S(=O)(=O)O)cc4C3(C)C)N(CCCS(=O)(=O)O)c3ccc(S(=O)(=O)O)cc32)C(N)=O)C(C)(C)SSC1(C)C (single isomer, unassigned) [compound 183] | > 3 | half-life at 22 μM ([1]; in parentheses after >180, read-out: Stabilty SIF t1/2, value in parentheses): 7.77 h |
| CC(=O)N[C@@H]1CCCCNC(=O)COCC(=O)NCCCC[C@@H](NC(C)=O)C(=O)N[C@H]2CSSC[C@H](NC(=O)[C@H](CC(C)C)NC(=O)[C@H]([C@@H](C)O)NC(=O)[C@H](CC(=O)O)NC(=O)[C@H](CO)NC(=O)[C@H](CCCNC(=N)N)N(C)C2=O)C(=O)N[C@@H](Cc2c[nH]c3ccccc23)C(=O)N[C@@H](C(N)=O)CCCCNC(=O)COCC(=O)NCCCC[C@H](C(N)=O)NC(=O)[C@H](Cc2c[nH]c3ccccc23)NC(=O)[C@@H]2CSSC[C@H](NC1=O)C(=O)N(C)[C@@H](CCCNC(=N)N)C(=O)N[C@@H](CO)C(=O)N[C@@H](CC(=O)O)C(=O)N[C@@H]([C@@H](C)O)C(=O)N[C@@H](CC(C)C)C(=O)N2 [compound 5] (I: Ac-[dK]C[NMeR]SDTLCW[dK]-NH2 / II: Ac-[dK]C[NMeR]SDTLCW[dK]-NH2; linker I:1-II:1, I:10-II:10 via Diglycolyl; disulfide I:2-I:8, II:2-II:8) | 0.1 |  |
| CC(=O)N[C@@H]1C(=O)N(C)[C@@H](CCCNC(=N)N)C(=O)N[C@@H](CO)C(=O)N[C@@H](CC(=O)O)C(=O)N[C@@H]([C@@H](C)O)C(=O)N[C@@H](CC(C)C)C(=O)N[C@H](C(=O)N[C@@H](Cc2ccc(C(C)(C)C)cc2)C(=O)N[C@@H](CCC(=O)O)C(=O)N[C@H](CCCCNC(=O)COCC(=O)NCCCC[C@@H](NC(=O)[C@H](CCC(=O)O)NC(=O)[C@H](Cc2ccc(C(C)(C)C)cc2)NC(=O)[C@H]2NC(=O)[C@H](CC(C)C)NC(=O)[C@H]([C@@H](C)O)NC(=O)[C@H](CC(=O)O)NC(=O)[C@H](CO)NC(=O)[C@H](CCCNC(=N)N)N(C)C(=O)[C@@H](NC(C)=O)C(C)(C)SSC2(C)C)C(N)=O)C(N)=O)C(C)(C)SSC1(C)C [compound 131] (I: Ac-[Pen][NMeR]SDTL[Pen][Phe(4-tBu)]E[dK]-NH2 / II: Ac-[Pen][NMeR]SDTL[Pen][Phe(4-tBu)]E[dK]-NH2; disulfide I:1-I:7, II:1-II:7; linker I:10-II:10 via Diglycolyl) | > 6 | half-life at 22 μM [1, 3]: 9 h |
| CC(=O)N[C@@H]1C(=O)N(C)[C@@H](CCCNC(=N)N)C(=O)N[C@@H](CO)C(=O)N[C@@H](CC(=O)O)C(=O)N[C@@H]([C@@H](C)O)C(=O)N[C@@H](CC(C)C)C(=O)N[C@H](C(=O)N[C@@H](Cc2ccc(C(F)(F)F)cc2)C(=O)N[C@H](CCC(=O)O)C(=O)N[C@H](CCCCNC(=O)COCC(=O)NCCCC[C@@H](NC(=O)[C@@H](CCC(=O)O)NC(=O)[C@H](Cc2ccc(C(F)(F)F)cc2)NC(=O)[C@H]2NC(=O)[C@H](CC(C)C)NC(=O)[C@H]([C@@H](C)O)NC(=O)[C@H](CC(=O)O)NC(=O)[C@H](CO)NC(=O)[C@H](CCCNC(=N)N)N(C)C(=O)[C@@H](NC(C)=O)C(C)(C)SSC2(C)C)C(N)=O)C(N)=O)C(C)(C)SSC1(C)C [compound 3] (I: Ac-[Pen][NMeR]SDTL[Pen][Phe(4-CF3)][dE][dK]-NH2 / II: Ac-[Pen][NMeR]SDTL[Pen][Phe(4-CF3)][dE][dK]-NH2; disulfide I:1-I:7, II:1-II:7; linker I:10-II:10 via Diglycolyl) | > 3 |  |
| CC(=O)N[C@@H]1C(=O)N(C)[C@@H](CCCNC(=N)N)C(=O)N[C@@H](CO)C(=O)N[C@@H](CC(=O)O)C(=O)N[C@@H]([C@@H](C)O)C(=O)N[C@@H](CC(C)C)C(=O)N[C@H](C(=O)N[C@@H](Cc2ccc(C(C)(C)C)cc2)C(=O)N[C@@H](CCC(=O)O)C(=O)N(C)[C@@H](CCCCNC(=O)COCC(=O)NCCCC[C@@H](C(N)=O)N(C)C(=O)[C@H](CCC(=O)O)NC(=O)[C@H](Cc2ccc(C(C)(C)C)cc2)NC(=O)[C@H]2NC(=O)[C@H](CC(C)C)NC(=O)[C@H]([C@@H](C)O)NC(=O)[C@H](CC(=O)O)NC(=O)[C@H](CO)NC(=O)[C@H](CCCNC(=N)N)N(C)C(=O)[C@@H](NC(C)=O)C(C)(C)SSC2(C)C)C(N)=O)C(C)(C)SSC1(C)C [compound 133] (I: Ac-[Pen][NMeR]SDTL[Pen][Phe(4-tBu)]E[NMeK]-NH2 / II: Ac-[Pen][NMeR]SDTL[Pen][Phe(4-tBu)]E[NMeK]-NH2; disulfide I:1-I:7, II:1-II:7; linker I:10-II:10 via Diglycolyl) | > 6 | half-life at 22 μM [1, 3]: 11 h |
| CC(=O)N[C@@H]1C(=O)N(C)[C@@H](CCCNC(=N)N)C(=O)N[C@@H](CO)C(=O)N[C@@H](CC(=O)O)C(=O)N[C@@H]([C@@H](C)O)C(=O)N[C@@H](CC(C)C)C(=O)N[C@H](C(=O)N[C@@H](Cc2ccc(C(C)(C)C)cc2)C(=O)N[C@@H](CCC(=O)O)CC(=O)N[C@H](CCCCNC(=O)CN(CC(=O)NCCCC[C@@H](NC(=O)C[C@H](CCC(=O)O)NC(=O)[C@H](Cc2ccc(C(C)(C)C)cc2)NC(=O)[C@H]2NC(=O)[C@H](CC(C)C)NC(=O)[C@H]([C@@H](C)O)NC(=O)[C@H](CC(=O)O)NC(=O)[C@H](CO)NC(=O)[C@H](CCCNC(=N)N)N(C)C(=O)[C@@H](NC(C)=O)C(C)(C)SSC2(C)C)C(N)=O)C(=O)CCNC(=O)c2ccc(-c3c4ccc(=N)c(S(=O)(=O)O)c-4oc4c(S(=O)(=O)O)c(N)ccc34)c(C(=O)O)c2)C(N)=O)C(C)(C)SSC1(C)C [compound 182] | > 3 |  |
| CC(=O)N[C@@H]1C(=O)N(C)[C@@H](CCCNC(=N)N)C(=O)N[C@@H](CO)C(=O)N[C@@H](CC(=O)O)C(=O)N[C@@H]([C@@H](C)O)C(=O)N[C@@H](CC(C)C)C(=O)N[C@H](C(=O)N[C@@H](Cc2ccc3ccccc3c2)C(=O)N[C@@H](C(=O)N[C@H](CCCCNC(=O)COCC(=O)NCCCC[C@@H](NC(=O)[C@H](NC(=O)[C@H](Cc2ccc3ccccc3c2)NC(=O)[C@H]2NC(=O)[C@H](CC(C)C)NC(=O)[C@H]([C@@H](C)O)NC(=O)[C@H](CC(=O)O)NC(=O)[C@H](CO)NC(=O)[C@H](CCCNC(=N)N)N(C)C(=O)[C@@H](NC(C)=O)C(C)(C)SSC2(C)C)[C@H](C)O)C(N)=O)C(N)=O)[C@H](C)O)C(C)(C)SSC1(C)C [compound 140] (I: Ac-[Pen][NMeR]SDTL[Pen][2Nal][dT][dK]-NH2 / II: Ac-[Pen][NMeR]SDTL[Pen][2Nal][dT][dK]-NH2; disulfide I:1-I:7, II:1-II:7; linker I:10-II:10 via Diglycolyl) |  | IC50 (α4β7): 10 to 25 nM |
| CC(=O)N[C@@H]1C(=O)N(C)[C@@H](CCCNC(=N)N)C(=O)N[C@@H](CO)C(=O)N[C@@H](CC(=O)O)C(=O)N[C@@H]([C@@H](C)O)C(=O)N[C@@H](CC(C)C)C(=O)N[C@H](C(=O)N[C@@H](Cc2c[nH]c3ccccc23)C(=O)N[C@@H](CCC(=O)O)C(=O)N[C@@H](CCNC(=O)COCC(=O)NCC[C@H](NC(=O)[C@H](CCC(=O)O)NC(=O)[C@H](Cc2c[nH]c3ccccc23)NC(=O)[C@H]2NC(=O)[C@H](CC(C)C)NC(=O)[C@H]([C@@H](C)O)NC(=O)[C@H](CC(=O)O)NC(=O)[C@H](CO)NC(=O)[C@H](CCCNC(=N)N)N(C)C(=O)[C@@H](NC(C)=O)C(C)(C)SSC2(C)C)C(N)=O)C(N)=O)C(C)(C)SSC1(C)C [compound 97] (I: Ac-[Pen][NMeR]SDTL[Pen]WE[Dab]-NH2 / II: Ac-[Pen][NMeR]SDTL[Pen]WE[Dab]-NH2; disulfide I:1-I:7, II:1-II:7; linker I:10-II:10 via Diglycolyl) |  | IC50 (α4β7): < 10 nM |
